Laboratory results as given in patent US20050136020A1, “Silicone-free long-lasting shine hair care compositions” (priority 2003, published 2005).

Assays:
[1] = Solubility and visual clarity of PEG/PPG-8/3 Laurate in water and oils; type: physicochemical
Procedure: Solubility is the ability of one substance to blend uniformly with another, e.g. solid in liquid or liquid in liquid. Clarity is determined visually. A turbidity meter may be used to measure clarity if the system is not absolutely clear. The solubility of PEG/PPG-8/3 Laurate is up to fifty percent (50%) in water. […] The solubility of PEG/PPG-8/3 Laurate is up to ten percent (10%) in sunflower oil and in castor oil. […] In soybean oil, it is clear at five percent (5%) and slightly hazy at ten percent (10%).

Index of refraction = type: physicochemical
Procedure: Preferably, the hair care compositions of the present invention have PEG/PPG-8/3 Laurate. […] Refractive index impacts the overall clarity of the present composition. It is preferred to have an aqueous-based composition with a clear color for aesthetic appeal. The hair care compositions of the present invention have a Shine Index of at least 5 hours, preferably about 8 or more hours, and most preferably up to 18 hours or more, thereby providing for extended life shine. “Shine Index” as used herein is the length of time shine persists on treated hair, as evaluated in the test protocol described in Example 1.

## PEG/PPG-8/3 Laurate
[1]; in castor oil
  solubility in castor oil: ≤ 10%
[1]; in soybean oil, five percent (5%)
  clarity (visual) in soybean oil at 5%: clear
[1]; in soybean oil, ten percent (10%)
  clarity (visual) in soybean oil at 10%: slightly hazy
[1]; in sunflower and castor oil, up to its solubility limit
  clarity (visual) in sunflower and castor oil: clear and homogenous
[1]; in sunflower oil
  solubility in sunflower oil: ≤ 10%
[1]; in water
  solubility in water: ≤ 50%
[1]; in water, at concentrations up to its solubility limit
  clarity (visual) in water: clear and homogeneous
Index of refraction
  index of refraction: about 1.456
